Results reported in publication PMC10145651, “Modulation of the 5-Lipoxygenase Pathway by Chalcogen-Containing Inhibitors of Leukotriene A4 Hydrolase” (International Journal of Molecular Sciences, 2023).
Read-outs that look alike come from different tables or passages of the source.

How the values were obtained:
LTA4H [1] = biological target: T1, LTA4H (Homo sapiens, UniProt P09960); set-up: made in house; host or cells: Escherichia coli JM101; method as in PMID 24591641; conditions: previously demonstrated; cited from earlier work
T1 sequence (P09960 1-611): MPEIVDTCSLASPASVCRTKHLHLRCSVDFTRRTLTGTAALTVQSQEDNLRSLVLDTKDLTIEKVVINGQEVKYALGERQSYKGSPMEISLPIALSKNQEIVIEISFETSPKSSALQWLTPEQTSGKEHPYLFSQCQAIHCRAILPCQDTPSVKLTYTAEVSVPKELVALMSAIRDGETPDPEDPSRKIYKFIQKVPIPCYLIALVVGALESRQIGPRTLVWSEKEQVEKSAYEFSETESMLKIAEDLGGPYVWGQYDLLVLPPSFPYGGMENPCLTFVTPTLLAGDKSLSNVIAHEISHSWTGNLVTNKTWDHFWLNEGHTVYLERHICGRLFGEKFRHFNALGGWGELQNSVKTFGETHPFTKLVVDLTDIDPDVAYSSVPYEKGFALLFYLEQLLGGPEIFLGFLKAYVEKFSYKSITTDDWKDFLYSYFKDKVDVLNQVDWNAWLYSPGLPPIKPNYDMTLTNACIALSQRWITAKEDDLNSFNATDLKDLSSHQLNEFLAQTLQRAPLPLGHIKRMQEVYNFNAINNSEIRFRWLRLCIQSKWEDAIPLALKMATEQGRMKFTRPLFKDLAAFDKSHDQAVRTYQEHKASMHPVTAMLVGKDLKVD

LTA4H [2] = biological target: T1, LTA4H; assay: Thermal shift assay with differential scanning fluorimetry; assay type: binding; set-up: made in house; host or cells: Escherichia coli JM101; conditions: for Tm of LTA4H upon the addition of inhibitor: 0 to 200 µM inhibitor, increased from 57.5 °C without inhibitor
Protocol: DSF, also known as the thermal shift assay, was carried out in 25 mM Tris-HCl pH 7.8 containing 50 ng/µL LTA4H, 2X SYPRO Orange (Life Technologies, Carlsbad, CA, USA), 3% DMSO or 0–300 µM of an inhibitor. The assay was performed in a white 96-well Multiplate PCR Plate (Bio-Rad, Hercules, CA, USA) covered with the iCycler iQ Optical tape (Bio-Rad, Hercules, CA, USA). The total volume per well was 25 μL, consisting of 1 μL SYPRO Orange solution. Relative fluorescence intensities (RFU) were recorded with a C1000 Touch Thermal Cycler (Bio-Rad, Hercules, CA, USA) and a CFX-96 Real-Time System. […] The melting temperature (Tm) for each condition were obtained from the first derivative of melting curves and the affinity (Kd) and stability (Kb) values were calculated based on the Tm and concentration–response curves.

LTA4H [3] = biological target: T1, LTA4H; assay: Aminopeptidase assay of LTA4H with the PGP substrate; assay type: biochemical; set-up: made in house; host or cells: Escherichia coli JM101; conditions: 800 μM PGP, 0–100 μM inhibitor
Protocol: The reaction was stopped by addition of 150 μL of acetic acid. To detect and quantify released N-terminal proline, incubations with 150 μL of ninhydrin solution (25 mg/mL) were carried out at 100 °C for 45 min. Samples were cooled down and purple-colored ninhydrin conjugates were extracted with 350 μL toluene and the upper phase was transferred to a polypropylene 96-well plate (Greiner Bio-One, Kremsmünster, Austria). All incubations were carried out in triplicates and absorbance was measured at 495 nm using a TECAN Infinite M200 plate reader. Specific peptidase activities were determined based on the standard curve of free L-proline (Figure S10).

[4] = from Tm concentration–response curves, read-out: Kd by differential scanning fluorimetry

Nc1nc(-c2ccc(Cc3ccccc3)cc2)cs1 [ARM1, 4-(4-benzylphenyl) thiazol-2-amine, reference compound]
effect on PGP cleavage by LTA4H (LTA4H [1]): remains unaffected
Tm of LTA4H upon the addition of inhibitor (LTA4H [2]): 61.2 °C
Kd (LTA4H [2]; [4]): 240 ± 10 nM

Nc1nc(-c2ccc(Cc3ccccc3)cc2)co1 [TTO, 4-(4-benzylphenyl) oxazol-2-amine]
effect on the cleavage of the PGP tripeptide by recombinant LTA4H (LTA4H [3]): did not influence
Tm of LTA4H upon the addition of inhibitor (LTA4H [2]): 60.7 °C
Kd (LTA4H [2]; [4]): 510 ± 40 nM

Nc1nc(-c2ccc(Cc3ccccc3)cc2)c[se]1 [TTSe, 4-(4-benzylphenyl) selenazol-2-amine]
effect on the cleavage of the PGP tripeptide by recombinant LTA4H (LTA4H [3]): did not influence
Kd (LTA4H [2]): 300 ± 20 nM
Tm of LTA4H upon the addition of inhibitor (LTA4H [2]): 61.9 °C
